From patent US9303069B2, “Peptides for treating cancer” (University of Mississippi Medical Center, priority 2014, dated 2016)
Ends that are not written are not given here.

How the values were obtained:
MDA-MB-468 tumors = experiment: In vivo efficacy on established MDA-MB-468 tumors; design: species or system mice; details: day 12; IRIS peptide 10 mg/kg i.t.; combination at half the concentrations
Method: Nude 6-8 weeks female mice were injected with 2×10^6 of MDA-MB-468 cells in the 2nd left and 4th right mammary fat pads. When all tumors reached ˜0.1 cm^3 in volume, mice were divided into four groups, one received vehicles (i.e. DMSO injected intraperitoneally [i.p.] and scrambled peptide injected directly into tumors [i.t.]), another received paclitaxel (10 mg/kg, i.p.), the third received IRIS peptide at (10 mg/kg, i.t.), and the last received paclitaxel and IRIS peptide at half the concentrations, injected as above. Drugs were delivered every third day for total of four injections.
In Vivo efficacy of BRCA1-IRIS-inhibitory peptide. Six to eight week old female athymic SCID mice were injected in the second right and the fourth left mammary gland with 2.5×10^6 of MDAMB468 cells. Tumor growth was followed daily until tumors reached 100 mm^3. At this time mice were randomly grouped into four different groups that were injected: a) with DMSO (i.p.) and scrambled peptide (10 mg/kg) intra-tumoral (i.t.), b) injected with IRIS peptide (10 mg/kg, i.t.), c) injected with paclitaxel (10 mg/kg, i.p.), d) injected with IRIS peptide (5 mg/kg, i.t.), and paclitaxel (5 mg/kg, i.p.). […] Change in tumor volume was measured to monitor the efficacy of the treatments using caliper and is represented as percentage of volume at day 0 of treatment. […]

[1] = tested on: HME, MDA-MB-231, MDA-MB-468 and BT549 cells; experiment: Survival of breast cell lines after siRNA transfection followed by IRIS peptide; assay type: cell-based, human; details: siRNA 48 hours, then IRIS peptide 24 hours
Method: To rule out any off target effect of this peptide, HME, MDA-MB-231, MDA-MB-468 and BT549 cells were first transfected with luciferase (siLuc) or BRCA1-IRIS (siIRIS) siRNA for 48 hours before they were exposed to increasing concentrations of IRIS peptide for an additional 24 hours. As would be expected from treatments that target the same target, whether inactivating BRCA1-IRIS (FIG. 81) or depleting its mRNA first (FIG. 82) the percentages of cells remained following these treatments were identical (see FIG. 83).
Small interfering RNA transfections. Specific siRNAs for luciferase (negative control) or human BRCA1-IRIS were obtained from Ambion, USA. Transfection was done using Oligofectamine™ reagent (GibcoBRL Inc, USA) and standard protocol (for reference see ElShamy and Livingston, 2004). Knockdwon of the target protein was usually confirmed by Western blotting 72 hours later. Cell viability was evaluated by MTS or by manual counting after 72 hours of siRNA transfection or combined with paclitaxel (24 hour exposure). Each experiment was done in triplicate, repeated three separate times

[2] = tested on: HOSE, HOSE/IRIS, SKOV3, OVCAR3, OVCAR420 and OV-90 cells; experiment: Survival of ovarian cell lines after siRNA transfection followed by IRIS peptide; assay type: cell-based, human; details: then increasing concentrations of IRIS peptide 24 hours
Method: To establish the specificity of this peptide further, it was assumed that it would not affect cells already depleted from BRCA1-IRIS. To do that HOSE, HOSE/IRIS, SKOV3, OVCAR3, OVAC420 and OV-90 cells were first transfected with luciferase (as control, hereafter siLuc) or BRCA1-IRIS (hereafter siIRIS) specific siRNAs for 48 hours before they were exposed to increasing concentrations of IRIS peptide for another 24 hours.
Cell viability measurement. Cell viability under different experimental conditions was determined using the MTS assay or cell. […] Cell viability (%) was expressed as a ratio to control cells×100. Growth inhibition was also determined by manually counting cells in five different microscopic fields. Change in cell numbers (fold) was expressed as a ratio to control cells×100. […]
Transfections of siRNA. siRNAs for human ErbB2 and TrkB were purchased from Ambion and Santa Cruz Biotechnology, USA. […] Cell viability was evaluated by MTS or by manual counting after 72 hours of siRNA exposure alone or in combination with cisplatin exposure (for an additional 24 hours).

[3] = tested on: AKT, p-AKT, p-FOXO and FOXO3a; experiment: Signalling proteins in MDA-MB-231 and MDA-MB-468 cells (Western); assay type: cell-based, human
Source text: This was completely in line with decreased MDM2 and Skp2 (the ubiquitin ligases responsible for p-FOXO degradation) expression in BRCA1-IRIS silenced and BRCA1-IRIS and AKT inactivated cells (FIG. 87).

OVCAR3 cells = assay type: cell-based, human; details: 48 h
Method: (§1) Thus, a peptide (hereafter IRIS peptide) composed of a cell/nucleus penetrating signal (FIG. 26) fused to BRCA1-IRIS intron 11 (FIG. 26) was synthesized. Equal numbers of HOSE, HOSE/IRIS, SKOV3, OVCAR3, OVCAR420 and OV-90 cells were grown in the presence of increasing concentrations of IRIS peptide for 48 hours.
(§2) Cell viability measurement. Cell viability under different experimental conditions was determined using the MTS assay […]. Briefly, SKOV3, OVACAR3, HOSE and HOSE/IRIS cells (2.5×10^4 cells per well) were seeded in 96 well plates and incubated overnight at 37° C. in 10% humidified CO2 atmosphere in varying concentrations of IRIS peptide, or inhibitors of ErbB2 (CP-724714), EGFR (Erlotinib), TrkB (K252a), JNK (SP600125), p38 (SB203580), ERK (PD98059) and PI3′K/AKT (LY294002) inhibitors for 24 hours at 37° C. Cell Titer 96® Aqueous (Promega, Madison, Wis., USA) was used to measure viability following manufactures instructions. Cell viability (%) was expressed as a ratio to control cells×100. Growth inhibition was also determined by manually counting cells in five different microscopic fields. Change in cell numbers (fold) was expressed as a ratio to control cells×100. All experiments were done in at least triplicates, three different times. * is p≦0.05, ** is p≦0.001 and *** is p≦0.0001.

HOSE cells = assay type: cell-based, human; details: 48 h
Method: as §1, §2

OVCAR420 cells = assay type: cell-based, human; details: 48 h
Method: as §1, §2

OV-90 cells = assay type: cell-based, human; details: 48 h
Method: as §1, §2

HOSE/IRIS cells = assay type: cell-based, human; details: 48 h
Method: as §1, §2

For “RRIRPRPPRLPRPRPRPLPFPRPGIGTRFLCLPQSIYRSELNVYAFGEHILQISKYS [IRIS peptide]”, the “tumor size as % of original size (at day 0)” value (MDA-MB-468 tumors) was roughly 75%, the “percentages of cells remaining, IRIS peptide after siIRIS versus after siLuc” value [1] was “identical” and the “effect of IRIS peptide on survival of BRCA1-IRIS silenced cells” value ([2]; siIRIS 48 hours) was “not affected by the peptide at any of the concentrations tested”. For the same sequence, the “effect of IRIS peptide on survival of siLuc-transfected cells” value ([2]; siLuc 48 hours) was “gradual decrease in the survival of all cell lines”, the “total and activated AKT (p-AKT) levels” value ([3]; 5 μM IRIS peptide or 10 μM LY294002, 24 hours) was “decreased the levels of total and activated AKT (p-AKT) in both cell lines” and the “p-FOXO and FOXO3a levels” value ([3]; 5 μM IRIS peptide, 10 μM LY294002 or 10 μM PD98059, 24 hours) was “decreased p-FOXO level and increased the levels of FOXO3a in both cell lines”. It also gave an IC50 (OVCAR3 cells) of roughly 10 µM, an IC50 (HOSE cells) of roughly 1000 nM and an IC50 (OVCAR420 cells) of roughly 1000 nM. It also gave an IC50 (OV-90 cells) of roughly 5 µM and an IC50 (HOSE/IRIS cells) of roughly 10 µM.
